This passage reports T/C results from PubChem BioAssay AID330 (DTP/NCI, 2004).

This experiment has as its system P388 leukemia ip, CD2F1 mice, survival T/C. In words: NCI In Vivo Anticancer Drug Screen. Data for tumor model P388 Leukemia (intraperitoneal) in CD2F1 (CDF1) mice. To be noted: endpoint: median survival time, higher = longer survival. The method in brief: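 Mice carrying the transplanted tumor received test compound or vehicle. Survival was recorded in each group, and the value is the treated-group measurement divided by that of the vehicle-treated control group.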

[1] abbreviates: dose: 100.0 mg/kg/injection, schedule: Q01DX009 (ip), vehicle: Klucel (hydroxypropylcellulose) (HPC).
[2] abbreviates: dose: 200.0 mg/kg/injection, schedule: Q01DX009 (ip), vehicle: Klucel (hydroxypropylcellulose) (HPC).
The mark [3] stands for this setting: dose: 60.0 mg/kg/injection, schedule: Q01DX005 (ip), vehicle: saline with Tween-80.
The mark [4] stands for this setting: dose: 120.0 mg/kg/injection, schedule: Q01DX005 (ip), vehicle: saline with Tween-80.
[5] abbreviates: dose: 240.0 mg/kg/injection, schedule: Q01DX005 (ip), vehicle: saline with Tween-80.
The mark [6] stands for this setting: dose: 100.0 mg/kg/injection, schedule: Q04DX003 (ip), vehicle: saline with Tween-80.
[7] abbreviates: dose: 200.0 mg/kg/injection, schedule: Q04DX003 (ip), vehicle: saline with Tween-80.
[8] abbreviates: dose: 50.0 mg/kg/injection, schedule: Q01DX005 (ip), vehicle: Klucel (hydroxypropylcellulose) (HPC).
Setting [9] is: dose: 100.0 mg/kg/injection, schedule: Q01DX005 (ip), vehicle: Klucel (hydroxypropylcellulose) (HPC).
Where [10] appears, read: dose: 200.0 mg/kg/injection, schedule: Q01DX005 (ip), vehicle: Klucel (hydroxypropylcellulose) (HPC).
Where [11] appears, read: dose: 12.5 mg/kg/injection, schedule: Q01DX009 (ip), vehicle: Klucel (hydroxypropylcellulose) (HPC).
Setting [12] is: dose: 25.0 mg/kg/injection, schedule: Q01DX009 (ip), vehicle: Klucel (hydroxypropylcellulose) (HPC).
Where [13] appears, read: dose: 50.0 mg/kg/injection, schedule: Q01DX005 (ip), vehicle: saline with Tween-80.
[14] abbreviates: dose: 100.0 mg/kg/injection, schedule: Q01DX005 (ip), vehicle: saline with Tween-80.
Where [15] appears, read: dose: 200.0 mg/kg/injection, schedule: Q01DX005 (ip), vehicle: saline with Tween-80.

Where “and” joins values, the source holds several entries; their conditions need not be identical. Equal values may be shown once. Toxic doses and inconclusive results are not listed.

As for `CC1(C)N=C(N)N=C(N)N1c1ccc(OCCCOc2ccc(S(=O)(=O)F)cc2)c(Cl)c1`, the T/C (dose: 12.5 mg/kg/injection, schedule: Q04DX003 (ip), vehicle: saline) is 120 % of control and the T/C (dose: 25.0 mg/kg/injection, schedule: Q04DX003 (ip), vehicle: saline) is 115 % of control.
On to `O=C(COc1ccc(Cl)cc1)NN1CCCCCC1`, for which the T/C is 99 % of control (dose: 7.5 mg/kg/injection, schedule: Q01DX005 (ip), vehicle: Klucel (hydroxypropylcellulose) (HPC)) and 98 % of control (dose: 15.0 mg/kg/injection, schedule: Q01DX005 (ip), vehicle: Klucel (hydroxypropylcellulose) (HPC)).
On to `CC(C)(C)OC(=O)C(CC(=O)O)=C(c1ccccc1)c1ccccc1`, for which the T/C is 100 % of control under setting [1]; 100 % of control under setting [2]; 95 % of control (dose: 400.0 mg/kg/injection, schedule: Q01DX009 (ip), vehicle: Klucel (hydroxypropylcellulose) (HPC)).
As to `Cc1cc(=O)c2c(N(C)C)cccc2[nH]1`, the T/C runs as follows: (dose: 50.0 mg/kg/injection, schedule: Q01DX009 (ip), vehicle: acid diluted with saline) 104 % of control; (dose: 100.0 mg/kg/injection, schedule: Q01DX009 (ip), vehicle: acid diluted with saline) 91 % of control; (dose: 200.0 mg/kg/injection, schedule: Q01DX009 (ip), vehicle: acid diluted with saline) 96 % of control.
With `CN(C)/C=N/NC(=O)c1ccccc1N`, the T/C is 101 % of control under setting [3], 101 % of control under setting [4] and 100 % of control under setting [5].
For the compound `Cc1ccc([NH-])c([NH-])c1.[Cl][Pt+2][Cl]`, the T/C reads like this: (dose: 1.56 mg/kg/injection, schedule: Q04DX002 (ip), vehicle: saline with Tween-80) 105 % of control and 108 % of control; (dose: 3.12 mg/kg/injection, schedule: Q04DX002 (ip), vehicle: saline with Tween-80) 110 % of control; (dose: 25.0 mg/kg/injection, schedule: Q04DX002 (ip), vehicle: saline with Tween-80) 150 % of control; (dose: 50.0 mg/kg/injection, schedule: Q04DX002 (ip), vehicle: saline with Tween-80) 159 % of control.
As for `Nc1cc(N)c([N+](=O)[O-])cc1[N+](=O)[O-]`, the T/C runs as follows: under setting [6], 91 % of control; under setting [7], 100 % of control; (dose: 400.0 mg/kg/injection, schedule: Q04DX003 (ip), vehicle: saline with Tween-80) 87 % of control.
For the compound `Cc1cccc(C(=O)/C=C2/CCCN2C)c1`, the T/C was 110 % of control under setting [6] and 93 % of control under setting [7].
`COC(=O)C1(C)C(=O)NC(=O)CC1C` (configuration not stated): the T/C under setting [8] was 105 % of control, the T/C under setting [9] was 101 % of control and the T/C under setting [10] is 87 % of control.
Take `CN(C)c1ccc(N=C(C#N)c2ccc(Cl)cc2)cc1`: the T/C was 99 % of control (dose: 50.0 mg/kg/injection, schedule: Q04DX003 (ip), vehicle: Klucel (hydroxypropylcellulose) (HPC)); 96 % of control (dose: 100.0 mg/kg/injection, schedule: Q04DX003 (ip), vehicle: Klucel (hydroxypropylcellulose) (HPC)); 103 % of control (dose: 200.0 mg/kg/injection, schedule: Q04DX003 (ip), vehicle: Klucel (hydroxypropylcellulose) (HPC)); 96 % of control (dose: 400.0 mg/kg/injection, schedule: Q04DX003 (ip), vehicle: Klucel (hydroxypropylcellulose) (HPC)).
For the compound `Clc1ccc2ncnc(Nc3ccccc3)c2c1`, the T/C was 91 % of control (dose: 50.0 mg/kg/injection, schedule: Q01DX009 (ip), vehicle: Klucel (hydroxypropylcellulose) (HPC)); 100 % of control under setting [1]; 86 % of control under setting [2].
With `COC(=O)C1=[N+]([O-])[N+]([O-])=C(C(=O)OC)C1=O`, the T/C under setting [11] was 95 % of control and the T/C under setting [12] was 94 % of control.
On to `O=C1OC(c2ccccc2)=N/C1=C/c1cccn(-c2ccccc2)c1=S`, for which the T/C under setting [8] was 94 % of control, the T/C under setting [9] is 87 % of control and the T/C under setting [10] is 86 % of control.
As for `Cc1cc2c(c3ccccc13)C(=N/N=C(N)N)/C(=N/N=C(N)N)C2`, the T/C (dose: 6.25 mg/kg/injection, schedule: Q01DX009 (ip), vehicle: saline with Tween-80) is 101 % of control; the T/C (dose: 12.5 mg/kg/injection, schedule: Q01DX009 (ip), vehicle: saline with Tween-80) is 108 % of control; the T/C (dose: 25.0 mg/kg/injection, schedule: Q01DX001 (ip), vehicle: saline with Tween-80) is 105 % of control; the T/C (dose: 25.0 mg/kg/injection, schedule: Q01DX009 (ip), vehicle: saline with Tween-80) is 101 % of control; the T/C (dose: 50.0 mg/kg/injection, schedule: Q01DX001 (ip), vehicle: saline with Tween-80) is 97 % of control.
For the compound `COC(=O)/C(=C/c1ccc(/C=C(/C(=O)O)c2ccc(OC)cc2)o1)c1ccc(OC)cc1`, the T/C is, setting by setting: (dose: 100.0 mg/kg/injection, schedule: Q04DX002 (ip), vehicle: saline with Tween-80) 96 % of control; (dose: 200.0 mg/kg/injection, schedule: Q04DX002 (ip), vehicle: saline with Tween-80) 92 % of control; (dose: 400.0 mg/kg/injection, schedule: Q04DX002 (ip), vehicle: saline with Tween-80) 101 % of control.
For the compound `COc1cc(/C=C/C(=O)NCCCCN)ccc1O`, the T/C is 105 % of control under setting [3], 101 % of control under setting [4] and 95 % of control under setting [5].
Consider `O=C1CN(c2cccc(C(F)(F)F)c2)C(=O)CN1/N=C/c1ccc[nH]1`, for which the T/C under setting [13] was 101 % of control, the T/C under setting [14] was 100 % of control and the T/C under setting [15] is 99 % of control.
For `COc1ccc2c(Cl)cc(NC(=S)Nc3ccccc3)nc2c1`, the T/C reads like this: (dose: 6.25 mg/kg/injection, schedule: Q01DX009 (ip), vehicle: Klucel (hydroxypropylcellulose) (HPC)) 103 % of control; under setting [11], 104 % of control; under setting [12], 96 % of control.
As to `O=[N+]([O-])c1ccc(OP(=O)(Oc2ccc([N+](=O)[O-])cc2)N(CCCl)CCCl)cc1`, the T/C is 108 % of control (dose: 18.8 mg/kg/injection, schedule: Q01DX001 (ip), vehicle: other); 112 % of control (dose: 37.5 mg/kg/injection, schedule: Q01DX001 (ip), vehicle: other); 113 % of control (dose: 75.0 mg/kg/injection, schedule: Q01DX001 (ip), vehicle: other); 115 % of control (dose: 150.0 mg/kg/injection, schedule: Q01DX001 (ip), vehicle: other); 99 % of control (dose: 300.0 mg/kg/injection, schedule: Q01DX001 (ip), vehicle: other).
With `O=C(NC(=O)c1c(F)cccc1F)Nc1ccc(C(O)(C(F)(F)F)C(F)(F)F)cc1`, the T/C was 102 % of control under setting [13], 100 % of control under setting [14] and 109 % of control under setting [15].
Regarding `CC(C)CC(C(=O)O)N(CC(=O)O)CC(=O)O` (configuration not stated), the T/C by setting is: (dose: 12.5 mg/kg/injection, schedule: Q01DX005 (ip), vehicle: saline) 97 % of control; (dose: 25.0 mg/kg/injection, schedule: Q01DX005 (ip), vehicle: saline) 87 % of control; (dose: 50.0 mg/kg/injection, schedule: Q01DX005 (ip), vehicle: saline) 98 % of control.
In the case of `CCN(CC)C(=O)N1CC1`, the T/C was 102 % of control (dose: 100.0 mg/kg/injection, schedule: Q04DX002 (ip), vehicle: saline) and 100 % of control (dose: 200.0 mg/kg/injection, schedule: Q04DX002 (ip), vehicle: saline).
